# Measured values as given in patent US20210163489A1, “PYRAZOLOPYRIMIDINE DERIVATIVES AND THE COMPOSITIONS AND METHODS OF TREATMENT REGARDING THE SAME” (NysnoBio Ireland DAC, priority 2016, published 2021).
# Experiments:
# Parkin = target: T1, Parkin (Homo sapiens, UniProt O60260); assay: Parkin pUB auto-ubiquitinylation assay (TR-FRET); assay type: biochemical; conditions: activation of pUb activated Parkin; read-out: Auto-ubiq EC50 (μM) [Example 3]
# T1 construct: Enzyme 3: Parkin-His tagged 203 μM (10.5 mg/ml)
# From the text: A Parkin pUB Auto-ubiquitinylation Assay is used to evaluate a compound's potency to activate Parkin's ability to Auto-ubiquitinylate itself.
# The principle of this assay is that the E3 Ligase Parkin catalyzes the transfer of Ubiquitin to target proteins, but also has the ability to auto-ubiquitinylate itself. The phospho-Ubiquition (pUb) added to the assay alters the Parkin to a state where small molecule activators can enable the Parkin to auto-ubiquitinylate though the E1-E2 cascade reaction. The use of a Eu cryptate Ubiquition and anti 6His-d2 that binds to the His tagged Parkin will give a signal when the Eu cryptate Ubiquition is auto-ubiquitinylate onto the Parkin which can be monitored by TR-FRET.
# Similar to the Activity-based probe assay in Example 2, screening for activating compounds can be distinguished from the controls as follows:
# 100% activation signal=pUb activated Parkin+40 nM control activator in DMSO. 0% activation signal=pUb activated Parkin+DMSO only. Parkin activators can be identified by an increase of the 0% activation signal TR-FRET signal.
# • Assay Plate: White 384 well plate (Corning 3572) • Enzyme 1: E1 (Ubiquitin-activating enzyme/UBE1 Boston Biochem E-305) • Enzyme 2: E2 (UBcH7/Ube2L3 Boston Biochem E2-640) • Enzyme 3: Parkin-His tagged 203 μM (10.5 mg/ml) • pUb: Phospho-Ubiquitin (S65) (Boston Biochem U-102) • Eu Cryptate Reagent: Ubiquitin Eu (CisBio 61UBIKLA) • DMSO: DMSO (Sigma-34869-2.5L) • Reaction Buffer: 50 mM HEPES, 50 mM NaCl, 1 mM MgCl2, 0.005% Tween 20, 0.1% • PF-127 (Fisher Scientific 50-310-494), pH 8.5 • Detection Buffer: 50 mM HEPES, 50 mM NaCl, 800 mM KF, 5 mM EDTA, 0.005% • Tween 20, 0.1% PF-127, pH 8.5 • Detection Reagent Z: 13.4 nM Anti-6His-d2 in detection buffer • d2 Reagent: Anti-6His-d2 (CisBio 61HISDLA)
# Enzyme Reaction (15 min Pre-Incubation with Parkin, pUb and Activator Only) • Parkin: 196 nM • pUb: 196 nM • DMSO: 1% DMSO • E1: 5 nM • E2: 50 nM • Ubiquitin Eu: 8.8 nM • Reaction time: 120 minutes • Temperature: 22° C. • Total volume: 10 μl reaction
# Take 10 μl of Enzyme Reaction above and add 10 μl detection Reagent Z under the following conditions:
# Reaction time: 60 minutes
# 1) Load assay plate wells with 4.9 μl 400.0 nM Parkin, 400 nM pUb in reaction buffer by use of Eppendorf 12-channel pipette. 2) Deliver 0.1 μl 100× activator candidates in DMSO by use of Echo 555 compound dispenser. Highest 100× concentration=100 μm and then twofold dilutions. Add each compound and control in duplicate wells. 3) Spin 1000 rpm, 2 minutes, at room temp. 4) Incubate plate for 15 minutes at room temp. 5) Add 5 μl 10 nM E1, 100 nM E2, 17.6 nM Ubiquitin Eu and 2 mM ATP in Reaction Buffer by use of Eppendorf 12-channel pipette. 6) Spin 1000 rpm, 2 minutes, at room temp. 7) Incubate plate for 120 minutes at room temp. 8) Add 10 μl 13.4 nM anti his d2 in detection buffer by use of Eppendorf 12-channel pipette. 9) Spin 1000 rpm, 2 minutes, at room temp. 10) Incubate plate for 120 minutes at room temp. 11) Read plates on Perkin Elmer Envision instrument with the following parameters:
# (§1) LANCE dual laser protocol loaded into the Envision® software
# (§2) Top Mirror: LANCE/DELFIA Duel/Bias (Bar code 446) Emission Filter: APC 665 EM (Bar code 205) 2nd Emission Filter: Europium 615 EM (Bar code 203) Read […] (channel 1) and 615 nm (channel 2) wavelengths on Envision®
# (§3) Data Analysis: The Data can be read in CSV files. There are two tables in those CSV files, which are the values of 655 nm (channel 1) and 615 nm (channel 2) wavelengths respectively. The data is converted to an HTRF Ratio=(Channel 1/Channel 2)*10,000
# (§4) The average of all the 0 uM controls (DMSO only)=BKGD (Background—0% activation). Subtract BKGD from each HTRF Ratio value=HTRF-BKGD. The average of all the 100 uM control activator in DMSO controls=Max (100% activation). The following equation is then used to calculate % Activation for each well/candidate as follows: % Activation=(HTRF−BKGD/Max)*100.
# XLFIT5 model 205 was applied for the data analysis. […]
# [1] = Metabolic stability in rat liver microsomes (RLM); assay type: in vitro ADME; conditions: 1 μM compound, 1.0 mg/mL microsome, NADPH
# Experimental: Compounds were also tested for metabolic stability in both rat liver microsomes (RLM) and human liver microsomes (HLM) and their half-life calculated (See Table 6). The assay was performed as follows. The total volume for each incubation was 250 μL. A 100 μM DMSO solution of compound (diluted from 10 mM stock solution) was spiked into 50 mM KH2PO4 (pH 7.4) buffer containing liver microsome at a concentration of 1.0 mg/mL. The reaction was initiated by the addition of 50 μL of 1 mM NADPH. The final concentration of each compound was 1 μM (1% DMSO). The positive controls, phenacetin for CYP1A2, diclofenac for CYP2C9, omeprazole for CYP2C19, dextromethorphan for CYP2D6 and midazolam for CYP3A4 were added to a separate tube with the final substrate concentrations of 1 μM (1% DMSO) for evaluating the enzyme activities in the liver microsomes. At 0, 15, 30 and 60 min, an aliquot of 15 μL reaction mixtures were removed and 200 μL of methanol (with internal standard of 25 ng/mL propranolol) was added to quench the reaction. The resulting mixture was centrifuged and supernatant was used for LC-MS/MS analysis.
# The signals for each compound, or the metabolites for the probe substrates and the internal standard were integrated and the peak area ratios to internal standard were generated. Percent parent remaining at a specified timepoint was calculated based on the peak area ratios at time 0 (as 100%) for in vitro metabolic stability studies in liver microsome and hepatocyte. The observed rate constant (kobs) for the metabolism of substrates was calculated by plotting the natural log of percentage substrate remaining versus time of incubation with the slope being kobs. The half-life (T1/2) was calculated according to the following equation: […]
# Parkin ligase = target: T2, Parkin ligase (Homo sapiens, UniProt O60260); assay: Activity-based probe assay using an ubiquitin vinyl sulfone probe (TR-FRET); assay type: biochemical; conditions: activation of heat activated Parkin, HA-Ub-VS probe; read-out: Probe Assay EC50 (μM) [Example 2]
# T2 construct: Enzyme: Parkin-His tagged 203 μM (10.5 mg/ml)
# T2 sequence (O60260 1-465): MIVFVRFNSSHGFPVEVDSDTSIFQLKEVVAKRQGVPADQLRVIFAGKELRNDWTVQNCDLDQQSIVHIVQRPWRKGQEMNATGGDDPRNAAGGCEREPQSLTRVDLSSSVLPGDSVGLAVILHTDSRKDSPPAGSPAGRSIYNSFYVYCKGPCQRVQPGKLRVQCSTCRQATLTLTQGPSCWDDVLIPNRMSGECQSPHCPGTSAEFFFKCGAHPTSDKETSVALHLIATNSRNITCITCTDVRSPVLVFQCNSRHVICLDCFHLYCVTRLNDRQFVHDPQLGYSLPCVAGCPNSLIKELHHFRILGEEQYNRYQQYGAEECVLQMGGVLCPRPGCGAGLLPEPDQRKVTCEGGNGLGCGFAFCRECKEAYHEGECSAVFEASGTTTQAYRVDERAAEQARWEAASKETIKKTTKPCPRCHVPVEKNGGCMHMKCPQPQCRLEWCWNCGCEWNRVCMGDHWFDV
# Experimental: An Ubiquitin vinyl sulfone probe can be used that irreversibly binds to the active site cysteine of Parkin ligase. Covalent attachment of the probe to the Parkin can be monitored by TR-FRET. Candidate activator compounds can be identified by increasing the activity of Parkin ligase due to an increase in TR-FRET signal. Screening for activating compounds can be distinguished from the controls as follows:
# 100% activation signal=Heat activated Parkin+100 nM control activator in DMSO. 0% activation signal=Heat activated Parkin+DMSO only. Parkin activators can be identified by an increase of the 0% activation signal TR-FRET signal.
# • Assay Plate: White 384 well plate (Corning 3572) • Enzyme: Parkin-His tagged 203 μM (10.5 mg/ml) • Probe: Ubiquitin vinyl-sulfone (HA-Ub-VS Boston Biochem U-212) • DMSO: DMSO (Sigma cat # D4540-100ML) • Reaction Buffer: 50 mM HEPES (pH 8.5), 150 mM NaCl, 0.01% Tween 20, 0.1% BSA • Detection Buffer: 50 mM HEPES (pH 8.5), 150 mM NaCl, 0.01% Tween 20, 0.1% BSA, 800 mM KF • Detection Reagent A: 2.6 nM Anti-6HIS-Eu cryptate and 40 nM Anti-HA-XL665 in detection buffer • Eu cryptate: Anti-6HIS-Eu cryptate (CisBio 61HISKLA) • XL665: Anti-HA-XL665 (CisBio 610HAXLA) Enzyme Reaction (15 min Pre Incubation Parkin with Activator Only) • Parkin: 40 nM • HA-Ub-VS Probe: 70 nM • Activator/DMSO: 2× Activator/2% DMSO • Reaction time: 60 minutes • Temperature: 22° C. • Total volume: 10 μl reaction
# • Take 10 μl of Enzyme Reaction above and add 10 μl detection Reagent A under the following conditions: • Reaction time: 60 minutes • Temperature: 22° C. • Total volume: 20 μl
# Assay procedure (Using HP D-300 compound dispenser and Bravo for the operation):
# 1) Heat activate Parkin in reaction buffer (500 μl/1.5 ml tube: Eppendorf Thermomixer 5 minutes, 400 rpm at 58° C. and put on ice until needed). 2) Load assay plate wells with 4.8 μl 84.5 nM Parkin in reaction buffer by use of Bravo. 3) Deliver 0.2 μl 200× activator candidates in DMSO by use of HP D-300 compound dispenser. Highest 200× concentration=20 μm and then twofold dilutions. 4) Spin 1000 rpm, 2 minutes, at room temp. 5) Incubate plate for 15 minutes at room temp. 6) Add 5 μl 140 nM HA-Ub-VS Probe in reaction buffer by use of Bravo. 7) Spin 1000 rpm, 2 minutes, at room temp. 8) Incubate plate for 60 minutes at room temp. 9) Add 10 μl 2.6 nM Anti-6HIS-Eu cryptate and 40 nM Anti-HA-XL665 in detection buffer. 10) Spin 1000 rpm, 2 minutes, at room temp. 11) Incubate plate for 60 minutes at room temp. 12) Read plates on Perkin Elmer Envision instrument with the following parameters:
# as §1, §2, §3
# as §4, with “[…] 100 nM control activator” for “100 uM control activator”
# Graphpad Prisim was used with Transform X values: X=Log(X) and nonlinear regression (dose-response-stimulation): Log(agonist) vs Response—variable slope (four parameters) with constrains set to Bottom=0 and Top=100.
SMILES,EC50 (Parkin) [µM],RLM t1/2 [1] [min],EC50 (Parkin ligase) [µM]
COc1ccc(-c2cnc3c(S)cc(C)nn23)cc1 [Compound Q3],> 40,6.0,–
COc1ccc(-c2cnn3c(O)c4c(nc23)CN(C)CC4)cc1 [Compound R3],–,–,> 100
COc1ccc(-c2cnc3c(S)cc(C)nn23)cc1 [Compound T3],–,96.0,–

# The remaining lines, values ahead:
EC50 (Parkin) [µM],RLM t1/2 [1] [min],EC50 (Parkin ligase) [µM],SMILES
–,–,> 100,Cc1ccc(-c2cnc3c(O)cc(C)nn23)cc1 [Compound U3]
–,–,> 100,COc1ccc(-c2cnc3c(O)cc(C)nn23)cc1 [Compound V3]
